Drawing on PubChem BioAssay (NCI), this text covers GI50 and TGI for 8 compounds.

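How tested: cells in 96-well plates exposed to compound for 48 hours at five concentrations. GI50 = concentration required for 50% inhibition of growth. TGI: concentration producing complete growth inhibition.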 Where only a bound is given, the exact number is not on record here.

Some test systems named below: A498 renal; ACHN renal; DU-145 prostate; HL-60(TB) leukemia; HOP-92 NSCLC; HT29 colon; NCI-H460 lung; NCI-H522 lung; U251 CNS; UACC-62 melanoma.
Common to all, as to assay: inhibition of tumour cell growth, NCI panel, 48 h

Regarding `COc1c/c(=C2\C=c3ccccc3=N2)[nH]/c1=C\c1[nH]c(C)cc1C`, the GI50 with A498 renal was 0.242 µM; with ACHN renal it was below 0.0224 µM; in the assay with DU-145 prostate, 0.0174 µM; with HL-60(TB) leukemia, below 0.0167 µM; in the assay on HOP-92 NSCLC it was 0.111 µM; with HT29 colon, below 0.01 µM. Further, the GI50 with NCI-H460 lung is 0.0268 µM; in the assay with NCI-H522 lung, 0.493 µM; with U251 CNS it was below 0.0337 µM; in the assay with UACC-62 melanoma, 0.0134 µM. Moreover, the TGI is 7.47 µM in the assay on A498 renal; 2.33 µM in the assay on ACHN renal; above 81.4 µM in the assay with DU-145 prostate; 12.8 µM in the assay with HL-60(TB) leukemia; 1.97 µM in the assay with HOP-92 NSCLC; above 100 µM in the assay on HT29 colon. Further, the TGI is above 100 µM in the assay with NCI-H460 lung, above 41.9 µM in the assay on NCI-H522 lung, 6.28 µM with U251 CNS and 0.0268 µM in the assay on UACC-62 melanoma.

On to `Cc1ccc(O)c(NC(=O)c2cccc(Nc3ccnc(C(F)(F)F)c3)c2)c1`, for which the GI50 is 5 µM with A498 renal; 9.65 µM with ACHN renal; 16.4 µM in the assay with DU-145 prostate; 0.592 µM in the assay with HL-60(TB) leukemia; 2.24 µM with HOP-92 NSCLC; 15.7 µM in the assay on HT29 colon. The GI50 was 10.4 µM with NCI-H460 lung, 1.23 µM in the assay on NCI-H522 lung, 15.6 µM with U251 CNS and 3.82 µM in the assay with UACC-62 melanoma. For the same compound, the TGI in the assay on A498 renal stood at 20.5 µM; with ACHN renal it was 48.8 µM; in the assay on DU-145 prostate, 71.5 µM; with HL-60(TB) leukemia, 11.1 µM; in the assay with HOP-92 NSCLC it was 21.1 µM; in the assay on HT29 colon, 33.4 µM. Moreover, the TGI in the assay on NCI-H460 lung stood at 35.3 µM; with NCI-H522 lung, 5.84 µM; with U251 CNS it was 37.6 µM; in the assay on UACC-62 melanoma, 20.7 µM.

As for `Cc1nn(CNc2ccccc2C(F)(F)F)c(=S)n1/N=C/c1cccc2cccnc12`, the GI50 in the assay with A498 renal is above 100 µM; in the assay with ACHN renal, 95.3 µM; with DU-145 prostate, above 100 µM; in the assay on HL-60(TB) leukemia, 40.6 µM; in the assay on HOP-92 NSCLC, 74.7 µM; in the assay with NCI-H460 lung, above 100 µM. Moreover, the GI50 was above 100 µM with NCI-H522 lung and 33.8 µM in the assay on UACC-62 melanoma. The TGI with A498 renal, with ACHN renal, with DU-145 prostate, in the assay with HL-60(TB) leukemia, in the assay on HOP-92 NSCLC and in the assay on NCI-H460 lung was above 100 µM each time. Besides, the TGI with NCI-H522 lung and with UACC-62 melanoma was above 100 µM throughout.

Consider `COc1ccc(C(=O)C(CN(C)C)CN(C)C)cc1`, for which the GI50 in the assay with A498 renal is 18.6 µM; in the assay with ACHN renal, 1.56 µM; in the assay with DU-145 prostate, 3.21 µM; in the assay on HL-60(TB) leukemia, 0.116 µM; with HOP-92 NSCLC it was 2.4 µM; with HT29 colon, 2.3 µM. Besides, the GI50 with NCI-H460 lung is 19.2 µM; in the assay on U251 CNS, 14.2 µM; with UACC-62 melanoma, 5.27 µM. For the same compound, the TGI in the assay with A498 renal was found to be 32.7 µM; in the assay on ACHN renal, 2.93 µM; in the assay with DU-145 prostate it was 9.93 µM; with HL-60(TB) leukemia, 1.87 µM; with HOP-92 NSCLC it was 9.84 µM; with HT29 colon it was 5.77 µM. For the same compound, the TGI with NCI-H460 lung came to 40.1 µM; in the assay with U251 CNS it was 34.1 µM; in the assay on UACC-62 melanoma, 19.4 µM.

As to `C=C(c1ccc(OC)c(/C=C/C(=O)c2ccc3c(c2)OCO3)c1)c1cc(OC)c(OC)c(OC)c1`, the GI50 in the assay with A498 renal was 2.72 µM; in the assay on DU-145 prostate it was 5.54 µM; with HL-60(TB) leukemia, 2.67 µM; with HOP-92 NSCLC, 1.78 µM; with HT29 colon, 2.98 µM; in the assay with NCI-H460 lung, 2.34 µM. For the same compound, the GI50 in the assay on NCI-H522 lung is 1.55 µM; in the assay with U251 CNS it was 2.54 µM; in the assay on UACC-62 melanoma, 1.32 µM. Moreover, the TGI in the assay with A498 renal is above 100 µM; in the assay on DU-145 prostate, above 100 µM; with HL-60(TB) leukemia it was above 100 µM; with HOP-92 NSCLC, above 100 µM; in the assay with HT29 colon, 10.4 µM; with NCI-H460 lung, 6.21 µM. Further, the TGI in the assay on NCI-H522 lung is 4.78 µM; in the assay on U251 CNS, 9.88 µM; in the assay on UACC-62 melanoma, above 100 µM.

On to `COc1ccc(/C=C\c2cc(OC)c(OC)c(OC)c2)cc1OCC(=O)Nc1nc2ccc(F)cc2s1`, for which the GI50 in the assay on A498 renal was 6.25 µM; with ACHN renal, 3.33 µM; in the assay with DU-145 prostate, 8.97 µM; in the assay on HOP-92 NSCLC it was 5.73 µM; with HT29 colon, 9.63 µM; in the assay with NCI-H460 lung, 4.31 µM. In addition, the GI50 with NCI-H522 lung is 2.92 µM; in the assay on U251 CNS it was 4.33 µM; with UACC-62 melanoma it was 4.05 µM. For the same compound, the TGI in the assay with A498 renal, in the assay with ACHN renal, with DU-145 prostate, in the assay with HOP-92 NSCLC, in the assay on HT29 colon and in the assay on NCI-H460 lung was above 100 µM in each case. The TGI in the assay with NCI-H522 lung, in the assay on U251 CNS and in the assay on UACC-62 melanoma was above 100 µM each time.

In the case of `OCC1C(OCc2ccccc2)C(OCc2ccccc2)C(OCc2ccccc2)CN1Cc1ccccc1` (stereo unspecified), the TGI was 17.9 µM with ACHN renal; above 100 µM in the assay on DU-145 prostate; 44.8 µM in the assay on HOP-92 NSCLC; 34.6 µM in the assay on HT29 colon; 48.1 µM in the assay with NCI-H460 lung; above 100 µM in the assay on NCI-H522 lung. Besides, the TGI in the assay with U251 CNS and in the assay on UACC-62 melanoma was above 100 µM throughout.

For `Clc1c(Cl)[n+](Cc2ccc3ccccc3c2)cn1Cc1ccc2ccccc2c1`, the GI50 with A498 renal is 1.23 µM; with ACHN renal, 1.92 µM; in the assay with DU-145 prostate, 1.53 µM; with HOP-92 NSCLC, 0.733 µM; in the assay with HT29 colon it was 0.57 µM; in the assay on NCI-H460 lung, 1.53 µM. Further, the GI50 in the assay on NCI-H522 lung was 1.12 µM; in the assay on U251 CNS, 1.53 µM; in the assay on UACC-62 melanoma, 1.13 µM. Also, the TGI in the assay with A498 renal was determined as 2.92 µM; in the assay on ACHN renal, 3.66 µM; with DU-145 prostate it was 3.01 µM; in the assay with HOP-92 NSCLC, 2.14 µM; in the assay with HT29 colon it was 2.01 µM; in the assay on NCI-H460 lung, 2.98 µM. Also, the TGI in the assay on NCI-H522 lung was 2.67 µM; with U251 CNS, 2.94 µM; in the assay on UACC-62 melanoma, 2.45 µM.
